The source of these data is patent US20130317029A1 (PORTOLA PHARMACEUTICALS, INC., priority 2010, published 2013).

Some results are limits rather than exact numbers.

The first assay addresses T1, full length active recombinant SYK enzyme (Homo sapiens, UniProt P43405).
T1 construct: full length active recombinant SYK enzyme (Millipore, Calif.); purchased Millipore
Kind of assay: Inhibition of Syk tyrosine phosphorylation activity (LANCE TR-FRET kinase assay). The format is biochemical.
Details: not given
The gist of the method:
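Full-length active recombinant SYK (1 nM) phosphorylated biotinylated SYK-specific peptide (550 nM) with 100 μM ATP in 50 mM Tris pH 7.5, 5 mM MgCl2, 1 mM DTT, 3% DMSO, 1 h at room temperature. EDTA quench with Eu-anti-phosphotyrosine and SA-APC, 1 h TR-FRET read; IC50 by non-linear regression.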
(In TR-FRET formats the signal depends on donor and acceptor labels being close together.)
For the compound `NC(=O)c1c(Nc2cccc(-c3ccccn3)c2)nc(N[C@H](CC2CC2)C(N)=O)[nH]c1=O` [Example 95, (R)-2-(1-amino-3-cyclopropyl-1-oxopropan-2-ylamino)-6-oxo-4-(3-(pyridin-2-yl)phenylamino)-1,6-dihydropyrimidine-5-carboxamide], the IC50 was 1 to 10 nM.

Consider `CC(C)[C@@H](Nc1nc(Nc2cccc(-c3ccccn3)c2)c(C(N)=O)c(=O)[nH]1)C(N)=O` [Example 96, (R)-2-(1-amino-3-methyl-1-oxobuan-2-ylamino)-6-oxo-4-(3-(pyridin-2-yl)phenylamino)-1,6-dihydropyrimidine-5-carboxamide], for which the IC50 lay within 1 to 10 nM.

Turning to `CC(C)C[C@@H](Nc1nc(Nc2cccc(-c3cccnc3)c2)c(C(N)=O)c(=O)[nH]1)C(N)=O` [Example 97, (R)-2-(1-amino-4-methyl-1-oxopentan-2-ylamino)-6-oxo-4-(3-(pyridin-3-yl)phenylamino)-1,6-dihydropyrimidine-5-carboxamide], the IC50 lay in the range of 1 to 10 nM.

`COCCOc1cccc(Nc2nc(N[C@H](CC(C)C)C(N)=O)[nH]c(=O)c2C(N)=O)c1` [Example 98, (R)-2-(1-amino-4-methyl-1-oxopentan-2-ylamino)-4-(3-(2-methoxyethoxy)phenylamino)-6-oxo-1,6-dihydropyrimidine-5-carboxamide]: the 50% inhibitory concentration (IC50) was in the range of 1 to 10 nM.

Turning to `CC[C@@H](Nc1nc(Nc2cccc(OCCOC)c2)c(C(N)=O)c(=O)[nH]1)C(N)=O` [Example 99, (R)-2-(1-amino-1-oxobutan-2-ylamino)-4-(3-(2-methoxyethoxy)phenylamino)-6-oxo-1,6-dihydropyrimidine-5-carboxamide], the IC50 is 1 to 10 nM.

Turning to `CNC(=O)[C@@H](CC(C)C)Nc1nc(Nc2cccc(-c3ccccn3)c2)c(C(N)=O)c(=O)[nH]1` [Example 100, (R)-2-(4-methyl-1-(methylamino)-1-oxopentan-2-ylamino)-6-oxo-4-(3-(pyridin-2-yl)phenylamino)-1,6-dihydropyrimidine-5-carboxamide], the IC50 is more than 1000 nM.

For the compound `CC(C)C[C@@H](Nc1nc(Nc2cccc(OC(F)(F)F)c2)c(C(N)=O)c(=O)[nH]1)C(N)=O` [Example 101, (R)-2-(1-amino-4-methyl-1-oxopentan-2-ylamino)-4-(3-(trifluoromethoxy)phenylamino)-6-oxo-1,6-dihydropyrimidine-5-carboxamide], the IC50 was 1 to 10 nM.

With `CC[C@@H](Nc1nc(Nc2cccc(OC(F)(F)F)c2)c(C(N)=O)c(=O)[nH]1)C(N)=O` [Example 102, (R)-2-(1-amino-1-oxobutan-2-ylamino)-4-(3-(trifluoromethoxy)phenylamino)-6-oxo-1,6-dihydropyrimidine-5-carboxamide], the IC50 lay within 1 to 10 nM.

Consider `CNC(=O)[C@@H](CC(C)C)Nc1nc(Nc2ccc3ncsc3c2)c(C(N)=O)c(=O)[nH]1` [Example 103, (R)-4-(benzo[d]thiazol-6-ylamino)-2-(4-methyl-1-(methylamino)-1-oxopentan-2-ylamino)-6-oxo-1,6-dihydropyrimidine-5-carboxamide], for which the IC50 fell in the range of 10 to 100 nM.

For `CNC(=O)[C@@H](CC(C)C)Nc1nc(Nc2cccc(-n3cccn3)c2)c(C(N)=O)c(=O)[nH]1` [Example 104, (R)-4-(3-(1H-pyrazol-1-yl)phenylamino)-2-(4-methyl-1-(methylamino)-1-oxopentan-2-ylamino)-6-oxo-1,6-dihydropyrimidine-5-carboxamide], the half-maximal inhibitory concentration (IC50) was more than 1000 nM.

Regarding `CNC(=O)[C@@H](CC(C)C)Nc1nc(Nc2ccc3[nH]ncc3c2)c(C(N)=O)c(=O)[nH]1` [Example 105, (R)-4-(1H-indazol-5-ylamino)-2-(4-methyl-1-(methylamino)-1-oxopentan-2-ylamino)-6-oxo-1,6-dihydropyrimidine-5-carboxamide], the IC50 fell in the range of 100 to 1000 nM.

On to `CC(C)C[C@@H](Nc1nc(Nc2ccc(-c3cccnc3)cc2)c(C(N)=O)c(=O)[nH]1)C(N)=O` [Example 106, (R)-2-(1-amino-4-methyl-1-oxopentan-2-ylamino)-6-oxo-4-(4-(pyridin-3-yl)phenylamino)-1,6-dihydropyrimidine-5-carboxamide], for which the IC50 lay in the range of 1 to 10 nM.

Consider `CC(C)C[C@@H](Nc1nc(Nc2ccc3cccnc3c2)c(C(N)=O)c(=O)[nH]1)C(N)=O` [Example 107, (R)-2-(1-amino-4-methyl-1-oxopentan-2-ylamino)-6-oxo-4-(quinolin-7-ylamino)-1,6-dihydropyrimidine-5-carboxamide], for which the IC50 was 1 to 10 nM.

On to `CC(C)C[C@@H](Nc1nc(Nc2cnc3ccccc3c2)c(C(N)=O)c(=O)[nH]1)C(N)=O` [Example 108, (R)-2-(1-amino-4-methyl-1-oxopentan-2-ylamino)-6-oxo-4-(quinolin-3-ylamino)-1,6-dihydropyrimidine-5-carboxamide], for which the IC50 is less than 1 nM.

Consider `CC[C@@H](Nc1nc(Nc2cnc3ccccc3c2)c(C(N)=O)c(=O)[nH]1)C(N)=O` [Example 109, (R)-2-(1-amino-1-oxobutan-2-ylamino)-6-oxo-4-(quinolin-3-ylamino)-1,6-dihydropyrimidine-5-carboxamide], for which the IC50 is less than 1 nM.

Consider `COc1ccc(Nc2nc(N[C@H](CC(C)C)C(N)=O)[nH]c(=O)c2C(N)=O)cn1` [Example 110], for which the half-maximal inhibitory concentration (IC50) is 1 to 10 nM.

As for `CC(C)C[C@@H](Nc1nc(Nc2ccc(-c3ccncc3)cc2)c(C(N)=O)c(=O)[nH]1)C(N)=O` [Example 111, (R)-2-(1-amino-4-methyl-1-oxopentan-2-ylamino)-6-oxo-4-(4-(pyridin-4-yl)phenylamino)-1,6-dihydropyrimidine-5-carboxamide], the half-inhibitory concentration (IC50) lay in the range of 1 to 10 nM.

In the case of `CC(C)C[C@@H](Nc1nc(Nc2cccc(-c3ccncc3)c2)c(C(N)=O)c(=O)[nH]1)C(N)=O` [Example 112, (R)-2-(1-amino-4-methyl-1-oxopentan-2-ylamino)-6-oxo-4-(3-(pyridin-4-yl)phenylamino)-1,6-dihydropyrimidine-5-carboxamide], the IC50 lay in the range of 1 to 10 nM.

`CC(C)C[C@@H](Nc1nc(Nc2ccc(-c3ccccn3)cc2)c(C(N)=O)c(=O)[nH]1)C(N)=O` [Example 113, (R)-2-(1-amino-4-methyl-1-oxopentan-2-ylamino)-6-oxo-4-(4-(pyridin-2-yl)phenylamino)-1,6-dihydropyrimidine-5-carboxamide]: the concentration for half-maximal inhibition (IC50) was 1 to 10 nM.

Consider `CC(C)C[C@@H](Nc1nc(Nc2cnn(C)c2)c(C(N)=O)c(=O)[nH]1)C(N)=O` [Example 114, (R)-2-(1-amino-4-methyl-1-oxopentan-2-ylamino)-4-(1-methyl-1H-pyrazol-4-ylamino)-6-oxo-1,6-dihydropyrimidine-5-carboxamide], for which the IC50 lay in the range of 1 to 10 nM.

Regarding `CC(C)C[C@@H](Nc1nc(Nc2ccc(-n3ccnc3)cc2)c(C(N)=O)c(=O)[nH]1)C(N)=O` [Example 115, (R)-2-(1-amino-4-methyl-1-oxopentan-2-ylamino)-4-(4-(1H-imidazol-1-yl)phenylamino)-6-oxo-1,6-dihydropyrimidine-5-carboxamide], the IC50 lay in the range of 1 to 10 nM.

Regarding `CC[C@@H](Nc1nc(Nc2ccc(-n3ccnc3)cc2)c(C(N)=O)c(=O)[nH]1)C(N)=O` [Example 116, (R)-2-(1-amino-1-oxobutan-2-ylamino)-4-(4-(1H-imidazol-1-yl)phenylamino)-6-oxo-1,6-dihydropyrimidine-5-carboxamide], the IC50 was in the range of 1 to 10 nM.

For `CC(C)C[C@@H](Nc1nc(Nc2ccn(C)n2)c(C(N)=O)c(=O)[nH]1)C(N)=O` [Example 117, (R)-2-(1-amino-4-methyl-1-oxopentan-2-ylamino)-4-(1-methyl-1H-pyrazol-3-ylamino)-6-oxo-1,6-dihydropyrimidine-5-carboxamide], the IC50 lay in the range of 100 to 1000 nM.

With `CC(C)C[C@@H](Nc1nc(Nc2cccc(-n3ccnc3)c2)c(C(N)=O)c(=O)[nH]1)C(N)=O` [Example 118, (R)-2-(1-amino-4-methyl-1-oxopentan-2-ylamino)-4-(3-(1H-imidazol-1-yl)phenylamino)-6-oxo-1,6-dihydropyrimidine-5-carboxamide], the half-inhibitory concentration (IC50) was in the range of 1 to 10 nM.

`CC[C@@H](Nc1nc(Nc2cccc(-n3ccnc3)c2)c(C(N)=O)c(=O)[nH]1)C(N)=O` [Example 119, (R)-2-(1-amino-1-oxobutan-2-ylamino)-4-(3-(1H-imidazol-1-yl)phenylamino)-6-oxo-1,6-dihydropyrimidine-5-carboxamide]: the IC50 was in the range of 1 to 10 nM.

For the next assay, the system named is ITAM signaling.
Test: not given
The note with it: in response to various stimuli, including FcεR1 and BCR induced Syk activation; cited from earlier work.
As for `COc1cc(Nc2ncc(F)c(Nc3ccc4c(n3)NC(=O)C(C)(C)O4)n2)cc(OC)c1OC` [Example R406], the “inhibition of ITAM signaling” value is listed as “inhibit ITAM signaling”.

The subject of a further assay is JAK kinases.
Test: not given
The note with it: cited from earlier work.
For `COc1cc(Nc2ncc(F)c(Nc3ccc4c(n3)NC(=O)C(C)(C)O4)n2)cc(OC)c1OC` [Example R406], the “activity against JAK kinases” value is reported as “active”.

The next assay has as its system Src kinsase.
Test: not given
The note with it: cited from earlier work.
Regarding `COc1cc(Nc2ncc(F)c(Nc3ccc4c(n3)NC(=O)C(C)(C)O4)n2)cc(OC)c1OC` [Example R406], the “activity against Src kinase” value was “not against”.

The test system of a further assay is lymphoma cell lines and primary human lymphoma samples.
Test: not given
The note with it: lymphoma cell lines and primary human lymphoma samples; cited from earlier work.
In the case of `COc1cc(Nc2ncc(F)c(Nc3ccc4c(n3)NC(=O)C(C)(C)O4)n2)cc(OC)c1OC` [Example R406], the BCR signaling entry is listed as “attenuates BCR signaling”.

The same assay, now with this note: lymphoma cell lines; cited from earlier work.
Turning to `COc1cc(Nc2ncc(F)c(Nc3ccc4c(n3)NC(=O)C(C)(C)O4)n2)cc(OC)c1OC` [Example R406], the apoptosis result is on record as “resulting in apoptosis”.

The subject of a further assay is refractory NHL and chronic lymphocytic leukemia.
Test: not given
The note with it: cited from earlier work.
As to `COc1cc(Nc2ncc(F)c(Nc3ccc4c(n3)NC(=O)C(C)(C)O4)n2)cc(OC)c1OC` [Example R406], the “phase II clinical trial outcome” value was “favorable results”.

A word on the IC50: it is the midpoint of a concentration-inhibition curve.
